Where “and” joins values, the source holds several entries; their conditions need not be identical. Equal values may be shown once. Read-outs that look alike come from different tables or passages of the source.
Key:
[1] = Sustained release of Nabumetone from beta-keto sodium salt prodrug in phosphate buffer at blood pH and 37° C.; assay type: physicochemical; settings: phosphate buffer pH about 7.4, 37° C.
Description: 20.91 mg of the product synthesised as described in Example 8 (however in this case not purified by the chromatographic step in Example 8) was mixed with 1 ml 0.5 M NaOH at room temperature, whereby a portion of the sample was dissolved. After 30 minutes the mixture was placed in an oven at 37° C., and 10 μl samples was taken at regular intervals, diluted with 1 ml mobile phase (as in Example 1), and analyzed by HPLC, using UV-detection at 240 nm. 3.0 hours after initiation of the saponification reaction, the precursor (retention time 4.6 min) could no longer be detected, and the precursor peak was replaced by a peak from the intermediary beta-keto salt prodrug (retention time 2.3 minutes). At this point in time, a solution of 9 ml H2O and 0.0762 g NaH2PO4 was added to the sample, in order to create a NaH2PO4/Na2HPO4 pH buffer by neutralization of the NaOH remaining in the sample. […] The sample was again placed in the oven at 37° C. and the decarboxylation of the beta-keto salt in solution, gradually giving the commercially available drug Nabumetone, was followed by HPLC by taking 100 μl samples at regular intervals and diluting them with 1 ml mobile phase (see Example 1 above) before injection on the HPLC. It can be seen from the data that Nabumetone was continuously released into the solution via the spontaneous, non-enzymatic decarboxylation of the dissolved prodrug sodium salt, over a period of more than 120 hours. The half-life of the prodrug was estimated to be about 70 hours in this medium and under the conditions used.

[2] = Aqueous solubility of sodium beta-keto salt prodrug of Nabumetone (Example 13b); assay type: physicochemical
Description: 12.1 mg of the of ethyl-5-(6-methoxy-2-naphthyl)-beta-keto-pentanoate product prepared and purified as in Example 8 was mixed with 25 mL of a 0.5 M aqueous solution NaOH and homogenised on a vortex mixer. […] 15 minutes after preparation of the sample, the sample was transferred to an oil bath set at 37° C. with continuous gentle magnetic stirring, and kept there for 3.5 hours. Crystalline flakes remained in the sample at the end of the 3.5 hours heat-treatment, and the sample was thereafter centrifuged and the clear liquid above the sedimented crystals was analysed by HPLC as described above.
After storage around one hour at room temperature a fraction of the sample was then filtered twice through a 0.2 μm filter (Whatman, 0.2 μm PS) fitted to a syringe to give a clear solution. 200 μL of this filtered solution was transferred, in a tightly closed vessel, to an oil bath at 95° C. and kept at this temperature for about 5 hours to bring about quantitative decarboxylation of the labile, dissolved beta-keto carboxylic salt prodrug derivative of Nabumetone.
The heated sample was then mixed with 35 mL of mobile phase (see Example 1) whereby a few solid crystals (comprising Nabumetone) was seen to not dissolve. In order to assure a correct sampling for HPLC analysis, 5 mL of the 35 mL sample was filtered through a 0.2 μm filter, after the whole 35 mL sample had been pH adjusted to 4.21 by 300 μL 0.1 M HCl+100 μL 1 M HCl, to assure that the pH of the sample was close to the pH of the mobile phase itself (pH 4.30). The filtered solution was thereafter analysed by HPLC and found to contain 0.777 mg Nabumetone per liter. If recalculated to the corresponding concentration of nabumetone equivalents in the form of the beta-keto salt prodrug present in dissolved form in the filtered 200 μl sample that was subsequently heat-treated to form Nabumetone above, the obtained concentration corresponds to a Nabumetone concentration of 136.7 mg Nabumetone per liter in the clear aqueous solution, at room temperature, before the heat-treatment at 95° C.

[3] = cited from earlier work
[4] = pig, 2 mM, pH 6.63
[5] = Sustained release of acetophenone in vitro in model blood electrolyte solution at 37° C.; assay type: physicochemical; settings: formed from sodium benzoyl acetate, model blood electrolyte solution pH 7.4
Description: A 0.2 M solution of ethyl benzoyl acetate (90%, Sigma Aldrich) in 0.5 M NaOH (aq) was prepared at room temperature and stirred for typically 5-24 hours, still at room temperature. After this time a major part of the ethyl benzoyl acetate had been transformed into dissolved sodium benzoyl acetate, as evidenced by monitoring the reaction by analysis of samples by reversed phase HPLC. Some acetophenone and remaining ethyl benzoyl acetate were typically present in the samples, but in minor amounts. The method employed a C8 column with an inner diameter of 150×4.6 mm and 5 micron particles. The mobile phase consisted of 400 ml deionized water+600 ml acetonitrile+0.196 g H3PO4 (85%)+2.760 g NaH2PO4*H2O. The flow rate was set to 1.0 mL/min and UV detection at 254 nm was employed for analysis of the compounds ethylbenzoylacetate (precursor), benzoylacetate (model prodrug) and acetophenone (model drug).
Ethyl benzoyl acetate was saponified according to the description in Example 1, and after 7 hours a solution containing about 0.2 M of the sodium salt of benzoyl acetate was obtained.

5-(6-methoxy-2-naphthyl)-beta-keto-pentanoate [Nabumetone beta-keto salt prodrug]
half-life of the prodrug (estimated) [1]: about 70 hours
period over which Nabumetone was continuously released into the solution [1]: more than 120 hours
Nabumetone beta-keto salt prodrug (HPLC area @ retention time 2.3 min) ([1]; 3.25 h after initiation of saponification): 28341
Nabumetone beta-keto salt prodrug (HPLC area @ retention time 2.3 min) ([1]; 5.1 h after initiation of saponification): 27144
Nabumetone beta-keto salt prodrug (HPLC area @ retention time 2.3 min) ([1]; 21.45 h after initiation of saponification): 22542
Nabumetone beta-keto salt prodrug (HPLC area @ retention time 2.3 min) ([1]; 24.25 h after initiation of saponification): 24102 and 21914
Nabumetone beta-keto salt prodrug (HPLC area @ retention time 2.3 min) ([1]; 28.15 h after initiation of saponification): 19536
Nabumetone beta-keto salt prodrug (HPLC area @ retention time 2.3 min) ([1]; 45.4 h after initiation of saponification): 18202
Nabumetone beta-keto salt prodrug (HPLC area @ retention time 2.3 min) ([1]; 50 h after initiation of saponification): 18123
Nabumetone beta-keto salt prodrug (HPLC area @ retention time 2.3 min) ([1]; 78 h after initiation of saponification): 9528
Nabumetone beta-keto salt prodrug (HPLC area @ retention time 2.3 min) ([1]; 117 h after initiation of saponification): 9760
Nabumetone beta-keto salt prodrug (HPLC area @ retention time 2.3 min) ([1]; 194 h after initiation of saponification): 1827
Solubility (mg/L, as Nabumetone equivalents) ([2]; clear aqueous solution (0.5 M NaOH) at room temperature, 0.2 μm filtered, before heat-treatment): 136.7 mg/L
Area at retention time 2.3 minutes characteristic for detection of the beta-keto anion ([2]; clear liquid after 3.5 h at 37° C. in 0.5 M NaOH, 200 μL diluted with 5.0 ml mobile phase): 36218 arbitrary units

CC(=O)c1ccccc1 [acetophenone]
Solubility ([3]; tabulated solubility): 46 mM
Acetophenone concentration ([4]; 0.25 h): 0.09 mM
Acetophenone concentration ([4]; 1.33 h): 0.32 mM
Acetophenone concentration ([4]; 2.58 h): 0.50 mM
Acetophenone concentration ([4]; 4.75 h): 0.866 mM
Acetophenone concentration ([4]; 5.58 h): 0.866 mM
Acetophenone concentration ([4]; 6.58 h): 0.921 mM
Acetophenone concentration ([4]; 22.58 h): 1.34 mM
Acetophenone concentration ([4]; -0.17 h): 0.07 mM
Concentration of acetophenone (model drug) in sample ([5]; Time @ 37° C. 0.42): 160 µM
Concentration of acetophenone (model drug) in sample ([5]; Time @ 37° C. 2.25): 290 µM
Concentration of acetophenone (model drug) in sample ([5]; Time @ 37° C. 3.17): 380 µM
Concentration of acetophenone (model drug) in sample ([5]; Time @ 37° C. 4.17): 480 µM
Concentration of acetophenone (model drug) in sample ([5]; Time @ 37° C. 6.17): 400 µM
Concentration of acetophenone (model drug) in sample ([5]; Time @ 37° C. 8.25): 630 µM
Concentration of acetophenone (model drug) in sample ([5]; Time @ 37° C. 10.17): 730 µM
Concentration of acetophenone (model drug) in sample ([5]; Time @ 37° C. 12.17): 730 µM
Concentration of acetophenone (model drug) in sample ([5]; Time @ 37° C. 13.92): 900 µM
Concentration of acetophenone (model drug) in sample ([5]; Time @ 37° C. 17.92): 920 µM
Concentration of acetophenone (model drug) in sample ([5]; Time @ 37° C. 21.17): 1080 µM
Concentration of acetophenone (model drug) in sample ([5]; Time @ 37° C. 24.92): 950 µM
Concentration of acetophenone (model drug) in sample ([5]; Time @ 37° C. 31.33): 1110 µM
Concentration of acetophenone (model drug) in sample ([5]; Time @ 37° C. 48.75): 1550 µM
Concentration of acetophenone (model drug) in sample ([5]; Time @ 37° C. 76.33): 1890 µM

C[C@]12CC[C@H]3[C@@H](CCC4=CC(=O)CC[C@@]43C)[C@@H]1CC[C@@H]2O [testosterone, (8R,9S,10R,13S,14S,17S)-17-hydroxy-10,13-dimethyl-1,2,6,7,8,9,11,12,14,15,16,17-dodecahydrocyclopenta[a]phenanthren-3-one]
Solubility ([3]; at 37° C., Okimotoa et al., 1999): 39 µg/mL

From patent US20120065179A1, “PRODRUG COMPRISING BETA-KETO CARBOXYLIC ACID, BETA-KETO CARBOXYLIC ACID SALT OR BETA-KETO CARBOXYLIC ACID ESTER FOR DRUG DELIVERY” (YKI, Ytemiska Institutet AB, priority 2009, published 2012)
